Results published in paper PMC9219103 (ACS Omega, 2022).
Several values for one entry are separate records, joined by “and”; a condition that tells them apart may be missing. Identical values can stand only once.

Key:
SOD = settings: read-out: SOD inhibition IC50; via copper chelation; cited from earlier work
[1] = system: human colon cancer (Caco-2) cells; assay: MTT anticancer screening on human colon cancer Caco-2 cells; assay type: cell-based; settings: for IC50: Caco-2, MTT, 72 h, mean ± SEM; for Morphological changes of Caco-2 cells: 72 h treatment, phase contrast microscopy
[2] = system: normal human cells (Wi-38); assay: MTT cytotoxicity screening on normal human cells; assay type: cell-based; settings: for EC100 (safe concentration at 100% cell viability): Wi-38 normal human lung fibroblasts, MTT, 72 h, mean ± SEM
ALDH1A = assay: Inhibition of ALDH1A activity in treated Caco-2 cells; assay type: cell-based, human; settings: Caco-2 cells treated with anticancer IC50 dose, 72 h
[3] = system: glutathione peroxidase (GPx); assay: Inhibition of glutathione peroxidase activity in treated Caco-2 cells; assay type: cell-based, human; settings: Caco-2 cells treated with anticancer IC50 dose, 72 h
Cu/Zn SOD = Cu/Zn SOD (Homo sapiens, UniProt P00441); assay: Inhibition of intracellular SOD activity in treated Caco-2 cells; assay type: cell-based; settings: Caco-2 cells treated with anticancer IC50 dose, 72 h
Cu/Zn SOD, sequence (P00441 whole entry): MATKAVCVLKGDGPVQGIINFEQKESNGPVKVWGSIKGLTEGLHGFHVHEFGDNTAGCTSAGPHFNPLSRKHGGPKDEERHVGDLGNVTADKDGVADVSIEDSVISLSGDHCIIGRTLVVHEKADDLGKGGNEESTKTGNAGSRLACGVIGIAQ

Caco-2 cells = assay: Determination of cellular ROS in Caco-2; assay type: cell-based, human; settings: Caco-2 cells treated with anticancer IC50 dose

Row | Structure (SMILES) | IC50 ([1]; Homo sapiens, Caco-2, 72 h) [µM] | EC100 (safe concentration at 100% cell viability) [2] | other results
1 | C[N+](C)(C)CCO.C[N+](C)(C)CCO.[SH-].[SH-].[S]=[Mo]=[S] [ATN-224, bis-choline tetrathiomolybdate] |  |  | IC50 (SOD): 0.33 µM
2 | O=C1CSC(=O)N1 [Compound 1, 2,4-thiazolidinedione] | 12.1 ± 3.25 | 22.05 µM and 22.047 ± 0.434 µM | 
3 | O=C1N=C(O)SC1=Cc1ccccc1 [Compound 3a, 5-Benzylidenethiazolidine-2,4-dione] | 74.6 ± 8.31 | 19.679 ± 3.105 µM | 
4 | CN(C)c1ccc(C=C2SC(O)=NC2=O)cc1 [Compound 3d, 5-(4-(Dimethylamino)benzylidene)thiazolidine-2,4-dione] | 8.95 ± 0.631 | 25.35 µM and 25.345 ± 0.655 µM | 
5 | O=C1NC(=O)C(=Cc2ccc(O)cc2)S1 [Compound 3e, 5-(4-Hydroxybenzylidene)thiazolidine-2,4-dione] | 8.48 ± 0.599 | 6.727 ± 0.040 µM | 
6 | C=CCN1C(=O)SC(=Cc2ccccc2)C1=O [Compound 4a, 3-Allyl-5-benzylidenethiazolidine-2,4-dione] | 12 ± 1.36 | 58.92 µM and 58.916 ± 10.698 µM | EC100 fold relative to doxorubicin (safety) ([2]; Wi-38, EC100 compound vs DOX): approximately 47.5 folds
7 | C=CCN1C(=O)SC(=Cc2cccc(Cl)c2)C1=O [Compound 4b, 3-Allyl-5-(3-chlorobenzylidene)thiazolidine-2,4-dione] | 13.8 ± 0.789 | 9.902 ± 2.360 µM | 
8 | C=CCOc1ccc(C=C2SC(=O)N(CC=C)C2=O)cc1 [Compound 4e, 3-Allyl-5-(4-(allyloxy)benzylidene)thiazolidine-2,4-dione] | 12.2 ± 3.12 |  | 
9 | CCOC(=O)CN1C(=O)SC(=Cc2ccccc2)C1=O [Compound 5a, Ethyl-2-(5-benzylidene-2,4-dioxothiazolidin-3-yl)acetate] | 8.2 ± 0.135 |  | 
10 | CCOC(=O)CN1C(=O)SC(=Cc2ccc(N(C)C)cc2)C1=O [Compound 5d, Ethyl-2-(5-(4-(dimethylamino)benzylidene)-2,4-dioxothiazolidin-3-yl)acetate] | 8.24 ± 2.59 | 16.179 ± 6.066 µM | 
11 | CCOC(=O)COc1ccc(C=C2SC(=O)N(CC(=O)OCC)C2=O)cc1 [Compound 5e, Ethyl-2-(5-(4-(2-ethoxy-2-oxoethoxy)benzylidene)-2,4-dioxothiazolidin-3-yl)acetate] | 8.57 ± 0.942 | 8.417 ± 0.004 µM | 
12 | O=C1SC(=Cc2ccc([N+](=O)[O-])cc2)C(=O)N1CCCBr [Compound 6c, 3-(3-Bromopropyl)-5-(4-nitrobenzylidene)thiazolidine-2,4-dione] | 10.4 ± 0.499 | 13.424 ± 1.130 µM | 
13 | CN(C)c1ccc(C=C2SC(=O)N(CCCBr)C2=O)cc1 [Compound 6d, 3-(3-Bromopropyl)-5-(4-(dimethylamino)benzylidene)thiazolidine-2,4-dione] | 7.94 ± 0.599 | 14.776 ± 1.125 µM | 
14 | O=C1SC(=Cc2ccccc2)C(=O)N1CCCO [Compound 7a, 5-Benzylidene-3-(3-hydroxypropyl)thiazolidine-2,4-dione] | 10.2 ± 0.77 | 18.923 ± 1.959 µM | 
15 | CN(C)c1ccc(C=C2SC(=O)N(CCCO)C2=O)cc1 [Compound 7d, 5-(4-(Dimethylamino)benzylidene)-3-(3-hydroxypropyl)thiazolidine-2,4-dione] | 7.118 ± 0.01 | 12.073 ± 3.577 µM | 
16 | COc1cccc2c1C(=O)c1c(O)c3c(c(O)c1C2=O)C[C@@](O)(C(=O)CO)C[C@@H]3O[C@H]1C[C@H](N)[C@H](O)[C@H](C)O1 [DOX, doxorubicin] | 19.9 | 1.239 ± 0.285 µM | Inhibition of ALDH1A activity (ALDH1A): about 4.800%; Inhibition of GPx activity [3]: 40.31%; IC50 [1]: 19.9 ± 2.37 µM; Inhibition of intracellular SOD activity (Cu/Zn SOD): 30.78%; Fold increment in cellular ROS level relative to untreated cells (Caco-2 cells): 4.065 folds

The remaining compounds from weak to strong by IC50 ([1]; Homo sapiens, Caco-2, 72 h), led by results:

Row | IC50 ([1]; Homo sapiens, Caco-2, 72 h) [µM] | Structure (SMILES) | EC100 (safe concentration at 100% cell viability) [2] | other results
17 | 7.062 ± 0.005 | C=CCN1C(=O)SC(=Cc2ccc(N(C)C)cc2)C1=O [Compound 4d, 3-Allyl-5-(4-(dimethylamino)benzylidene)thiazolidine-2,4-dione] |  | 
18 | 6.77 ± 0.096 | O=C1SC(=Cc2ccc([N+](=O)[O-])cc2)C(=O)N1CCCO [Compound 7c, 3-(3-Hydroxypropyl)-5-(4-nitrobenzylidene)thiazolidine-2,4-dione] | 11.439 ± 0.927 µM | 
19 | 6.67 ± 0.118 | CCOC(=O)CN1C(=O)SC(=Cc2ccc([N+](=O)[O-])cc2)C1=O [Compound 5c, Ethyl-2-(5-(4-nitrobenzylidene)-2,4-dioxothiazolidin-3-yl)acetate] | 8.573 ± 0.409 µM | 
20 | 6.52 ± 0.077 | C=CCN1C(=O)SC(=Cc2ccc([N+](=O)[O-])cc2)C1=O [Compound 4c, 3-Allyl-5-(4-nitrobenzylidene)thiazolidine-2,4-dione] | 7.078 ± 0.136 µM | 
21 | 4.73 | O=C1SC(=Cc2ccccc2)C(=O)N1CCCBr [Compound 6a, 5-Benzylidene-3-(3-bromopropyl)thiazolidine-2,4-dione] | 18.938 ± 0.975 µM | Morphological changes of Caco-2 cells [1]: severe shrinkage and collapse; IC50 [1]: 4.739 ± 0.021 µM
22 | 4.71 | O=C1NC(=O)C(=Cc2ccc([N+](=O)[O-])cc2)S1 [Compound 3c, 5-(4-Nitrobenzylidene)thiazolidine-2,4-dione] | 6.0653 ± 0.127 µM | Morphological changes of Caco-2 cells [1]: severe shrinkage and collapse; IC50 [1]: 4.72 ± 0.602 µM
23 | 4.41 | O=C1SC(=Cc2ccc(OCCCBr)cc2)C(=O)N1CCCBr [Compound 6e, 5-(4-(3-Bromopropoxy)benzylidene)-3-(3-bromopropyl)thiazolidine-2,4-dione] | 10.683 ± 2.384 µM | Morphological changes of Caco-2 cells [1]: severe shrinkage and collapse; IC50 [1]: 4.41 ± 0.546 µM
